Experimental data reported in patent publication US20050277575A1, “Therapeutic compositions and methods for treating diseases that involve angiogenesis” (priority 2004, published 2005).

Key:
S100A4 = molecular target: T1, S100A4 (Homo sapiens, UniProt P26447); assay: Modulation of S100A4 dependent tPA-mediated conversion of plasminogen to plasmin by peptides and chimera; assay type: biochemical
T1 construct: GST (N); made in house; host or cells: E. coli ER2507
Protocol: The effects of peptide SEQ ID 6, peptide SEQ ID 38 and chimera SEQ ID 39 on acceleration oft-PA-mediated conversion of plasminogen to plasmin induced by S100A4 were measured. The kinetics of t-PA-mediated plasminogen activation were determined by measuring the amidolytic activity of plasmin formed during activation of plasminogen. All the experiments were done in 100 μl volume in 96-well plates in triplicates. Glu-plasminogen (Calbiochem) at the concentration of 100 nM was preincubated at 25° C. for 1 h in the presence or absence of 1 μM recombinant S100A4 in a buffer consisting of 50 mM Tris-HCl, pH 7.4, 100 mM NaCl and 5 mM CaCl2 or 5 mM EGTA. In some experiments, different concentrations of peptides or chimera were preincubated together with proteins. The reaction was initiated by addition of 5 nM t-PA (Calbiochem) and 125 μM chromogenic plasmin substrate, Chromozym PL (Roche). The reactions were monitored at 405 nm for 1.5 h in a SPECTRAmax PLUS^384 microplate spectrophotometer (Molecular Devices) under control of the SOFTmax PRO kinetic program (Molecular Devices). The initial rates of plasmin generation, during the first 10-15 min, were calculated using linear regression analysis of plots of A405 nm versus time 2. The initial rates of plasmin generation were reported in units (K) of A405 nm/min^2×10^3. […] The titration data were analyzed with the four-parameter logistic equation K=(A−D)/(1+(x/C)^B)D. If A, asymptotic minimum, =0, this equation is converted to the Michaelis-Menten equation K=D/(1+(C/[S])^B), where [S] is substrate concentration, D=Vmax, C=Km, and B is the Hill coefficient.
Peptides SEQ ID 6 and SEQ ID 38 inhibited the accelerating effect of S100A4 on t-PA-dependent conversion of plasminogen to plasmin in concentration—dependent manner.
On the other hand, chimera SEQ ID 39 additionally accelerated plasmin formation already accelerated by S100A4.

[1] = system: Human cerebral endothelial cells (HCEC); assay: Capillary tube formation in Matrigel, S100A4 induced angiogenesis; assay type: cell-based; conditions: primary HCEC in Matrigel
Text: Human cerebral endothelial cells (HCEC) were isolated using previously described protocols (Stanimirovic, D., P. Morley, et al. (1996). “Angiotensin II-induced fluid phase endocytosis in human cerebromicrovascular endothelial cells is regulated by the inositol-phosphate signaling pathway.” J Cell Physiol 169(3): 455-67.). Purity of HCEC cultures generated by these procedures was routinely assessed by the immunocytochemical staining for Factor VIII-related antigen and the lack of staining for smooth muscle β-actin, and is estimated to be >95%. The morphological, phenotypic, biochemical and functional characteristics of these HCEC cultures have been described in detail previously (Muruganandam, A., L. M Herx, et al. (1997). “Development of immortalized human cerebromicrovascular endothelial cell line as an in vitro model of the human blood-brain barrier.” Faseb J 11(13): 1187-97).
HCEC were seeded (8×10^4 cells) on a semi-solid basement membrane matrix, Matrigel™ (Collaborative Biomedical Products, Bedford, Mass.)-coated 24-well plates and exposed to serum-free media containing various treatments. […] Confocal apertures for each recorded wavelength were adjusted to a full width half maximum of 20 μm. […] Eight to 32 individual optical sections were collected and the average was calculated. […]

T1 sequence (P26447 whole entry): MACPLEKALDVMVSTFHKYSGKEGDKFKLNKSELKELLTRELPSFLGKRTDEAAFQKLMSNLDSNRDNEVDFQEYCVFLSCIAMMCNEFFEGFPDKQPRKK

**Q.** With “Ac-AGLREVYGASLASYMERW-NH2 [SEQ ID 6, Ac-AGLREVYGASLASYMERW-amide]” as the substance, how does the “effect on S100A4 acceleration at 15 μM peptide” value (S100A4; 15 μM peptide) read?
**A.** totally neglected the effect of S100A4

**Q.** What about the IC50 (S100A4; peptides titrated 0.1-100 μM, 1 μM S100A4, read-out: IC50 for inhibition of accelerating effect of S100A4 on t-PA-dependent conversion of plasminogen to plasmin) of the same substance?
**A.** 6 µM

**Q.** And the “inhibition of S100A4-induced formation of capillary-like tubes” value [1]?
**A.** completely inhibit
